The values below come from ChEMBL document CHEMBL2429867, “Generation by mutasynthesis of potential neuroprotectant derivatives of the bipyridyl collismycin A” (2013).

The species entered for the test is Danio rerio. Put plainly: Neuroprotective activity in 3 days postfertilized zebrafish larvae assessed as reduction of all-trans retinoic acid-induced apoptosis at 1 uM after 24 hrs by fluorescence microscopy. The format is functional. Set-up: scale not given: the % may be the effect or the level left.

In the case of `O=C(O)CCCCC1CCSS1` (stereo not drawn) [LIPOIC ACID, ALPHA], the Activity was found to be 61%.

As for `COc1cc(-c2cccc(C)n2)nc(/C=N/O)c1SC`, the Activity was determined as 40%. For `COc1cc(-c2cc(C)ccn2)nc(/C=N/O)c1SC` the value was 70%.
